Source: the CheMixHub viscosity set

Test: xn = mol fraction of the nth substance listed

OC1CCCCC1 + O=C1CCCCC1
298.15 K, 101.3 kPa
Conditions	viscosity [mPa·s]
x2 = 0.2	13.85
x2 = 0.4	6.29
x2 = 0.51	4.54
x2 = 0.6	3.54
x2 = 0.8	2.38

CCOC(=O)C(C)O (stereo not given) + CCC(C)=O
101 kPa
Conditions	viscosity [mPa·s]
298.15 K, x1 = 0.6999	1.375
308.15 K, x1 = 0.8	1.345
308.15 K, x1 = 0.9001	1.595
318.15 K, x1 = 0.1999	0.4415

CS(C)=O + Cc1ccc(C)cc1
viscosity [mPa·s], 101 kPa
Conditions	x1 = 0.0993	x1 = 0.2067	x1 = 0.3019	x1 = 0.4	x1 = 0.5042	x1 = 0.59	x1 = 0.6956	x1 = 0.801	x1 = 0.8963
293.15 K	0.695	0.771	0.857	0.935	1.032	1.2	1.372	1.586	1.84
303.15 K	0.612	0.676	0.744	0.828	0.913	1.027	1.167	1.339	1.557
313.15 K	0.551	0.605	0.661	0.728	0.787	0.89	1.004	1.142	1.302
323.15 K	0.49	0.555	0.582	0.636	0.705	0.768	0.861	0.971	1.1

CCCCCCCO + CCCCCCC
viscosity [mPa·s], 101.33 kPa
Conditions	298.15 K	303.15 K	308.15 K	313.15 K
x1 = 0.0373	–	0.402	–	0.3519
x1 = 0.0508	0.4239	–	0.3784	–
x1 = 0.1004	0.4638	–	0.4111	–
x1 = 0.104	–	0.469	–	0.4152
x1 = 0.1707	–	0.543	–	0.4918
x1 = 0.2012	0.5765	–	0.5039	–
x1 = 0.2845	–	0.703	–	0.6087
x1 = 0.3013	0.7282	–	0.6241	–
x1 = 0.4001	0.946	–	0.7914	–
x1 = 0.4114	–	0.901	–	0.7971
x1 = 0.4992	1.243	–	1.023	–
x1 = 0.5113	–	1.21	–	0.9558
x1 = 0.5981	1.702	–	1.346	–
x1 = 0.62	–	1.671	–	1.318
x1 = 0.699	2.261	–	1.821	–
x1 = 0.7301	–	2.236	–	1.681
x1 = 0.8089	–	2.801	–	2.082
x1 = 0.85	3.616	–	2.806	–
x1 = 0.9029	–	3.742	–	2.728
x1 = 0.9456	4.749	–	3.608	–
x1 = 0.9699	–	4.553	–	3.322

C1CCCCCCC1 + C1CCCCC1
viscosity [mPa·s], 101 kPa
Conditions	303.15 K	308.15 K	313.15 K
x2 = 0.0546	–	1.706	1.541
x2 = 0.0923	1.877	–	–
x2 = 0.1695	–	1.514	1.381
x2 = 0.2019	1.715	–	–
x2 = 0.2513	–	1.41	1.277
x2 = 0.2992	1.585	–	–
x2 = 0.3712	–	1.274	1.165
x2 = 0.4839	–	1.158	1.054
x2 = 0.4989	1.344	–	–
x2 = 0.5516	–	1.097	1.004
x2 = 0.5811	1.254	–	–
x2 = 0.6466	1.183	–	–
x2 = 0.6567	–	1.006	0.9146
x2 = 0.7233	1.102	–	–
x2 = 0.7817	–	0.9053	0.8267
x2 = 0.8015	1.021	–	–
x2 = 0.8998	0.924	–	–
x2 = 0.9314	–	0.8049	0.7359

CCOC(=O)C(C)O (stereo not given) + Cc1ccccc1
101 kPa
Conditions	viscosity [mPa·s]
298.15 K, x1 = 0.7999	1.695
303.15 K, x1 = 0.3	0.7345
303.15 K, x1 = 0.7	1.295
313.15 K, x1 = 0.4	0.7225

O=C(O)C=Cc1ccccc1 + CCCO
viscosity [mPa·s]
Conditions	308.15 K	313.15 K	318.15 K	323.15 K
101 kPa, x1 = 0.0687	2.066	–	–	–
101 kPa, x1 = 0.0901	2.224	–	–	–
101 kPa, x1 = 0.109	2.44	–	–	–
101.33 kPa, x1 = 0.0687	2.066	1.836	1.629	1.452
101.33 kPa, x1 = 0.109	2.44	2.158	1.888	1.683

NS(=O)(=O)O + CN1CCCC1=O
298 K, 101.33 kPa
Conditions	viscosity [mPa·s]
x1 = 0.02005	2.01
x1 = 0.03918	2.413
x1 = 0.05851	2.977
x1 = 0.07708	3.724
x1 = 0.09776	4.962

OC1CCCCC1 + Oc1ccccc1
298.15 K, 101.3 kPa
Conditions	viscosity [mPa·s]
x1 = 0.79	27.6
x1 = 0.89	37.1

CC[C@@H](CO)NCCN[C@@H](CC)CO.Cl.Cl + O
298.15 K, 100 kPa
Conditions	viscosity [mPa·s]
x1 = 9.47e-06	0.8977
x1 = 1.925e-05	0.8983
x1 = 3.721e-05	0.8987
x1 = 9.087e-05	0.9011
x1 = 0.0001804	0.9029
x1 = 0.000898	0.9213
x1 = 0.001796	0.9443

OC1CCCCC1 + CS(C)=O
303.15 K, 101 kPa
Conditions	viscosity [mPa·s]
x2 = 0.1009	20.83
x2 = 0.1821	12.4
x2 = 0.2727	7.835
x2 = 0.373	5.386
x2 = 0.4703	4.069
x2 = 0.5678	3.265
x2 = 0.6724	2.732
x2 = 0.791	2.203
x2 = 0.8922	2.015

CC(=O)O.NCCO + CCCCO
298.15 K, 101.3 kPa
Conditions	viscosity [mPa·s]
x2 = 0.088	1548
x2 = 0.179	734.1
x2 = 0.272	460.3
x2 = 0.369	325.3
x2 = 0.476	190.3
x2 = 0.574	74.63
x2 = 0.666	30.51
x2 = 0.776	19.04
x2 = 0.881	14.02

CS(C)=O + COC(=O)OC
308.15 K, 101 kPa
Conditions	viscosity [mPa·s]
x1 = 0.0596	0.547
x1 = 0.1027	0.57
x1 = 0.1913	0.621
x1 = 0.2791	0.677
x1 = 0.371	0.743
x1 = 0.4598	0.814
x1 = 0.5007	0.853
x1 = 0.5479	0.897
x1 = 0.626	0.983
x1 = 0.7427	1.137
x1 = 0.8572	1.327
x1 = 0.9283	1.47

CCCCCCCO + CO
viscosity [mPa·s], 101 kPa
Conditions	298.15 K	308.15 K	318.15 K
x2 = 0.05	5.378	3.995	2.975
x2 = 0.1	4.999	3.737	2.809
x2 = 0.15	4.634	3.487	2.647
x2 = 0.2	4.284	3.246	2.488
x2 = 0.25	3.949	3.013	2.332
x2 = 0.3	3.627	2.788	2.179
x2 = 0.35	3.319	2.571	2.028
x2 = 0.4	3.025	2.362	1.88
x2 = 0.45	2.744	2.161	1.735
x2 = 0.5	2.475	1.967	1.592
x2 = 0.55	2.22	1.78	1.453
x2 = 0.6	1.978	1.602	1.317
x2 = 0.65	1.75	1.431	1.184
x2 = 0.7	1.534	1.267	1.056
x2 = 0.75	1.333	1.113	0.9327
x2 = 0.8	1.145	0.9661	0.815
x2 = 0.85	0.9716	0.8284	0.7037
x2 = 0.9	0.8131	0.6998	0.5997
x2 = 0.95	0.6699	0.5807	0.504
